Data taken from patent US20190225650A1, “PEPTIDOMIMETIC MACROCYCLES AND USE THEREOF IN REGULATING HIF1ALPHA” (AILERON THERAPEUTICS, INC., priority 2013, published 2019).
Bridge positions count the residues as written; N and C are the ends. Square brackets hold non-standard residues; d marks the D form. Peptide text beside a SMILES is read from it. S5 = C=CCCC[C@](C)(N)C(=O)O; Nle = CCCC[C@H](N)C(=O)O

What was measured:
HRE-bla ME-180 cells [1] = assay: Reporter gene assay (HRE-bla ME-180 HIF reporter, GeneBLAzer); format: cell-based, human; conditions: for EC50: 24 hour normoxia
Method in brief: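 A FRET β-lactamase readout of HIF transcription was used. After compound treatment in 0.3% DMSO/media under normoxic conditions, 20 μl of 6× LiveBLAzer-FRET B/G (CCF4-AM) substrate was added. Plates sat 3 hr at room temperature in the dark and were read at 409 Ex/460Em and 409Ex/530Em on a Synergy 2. Inhibition was compared against DMSO vehicle controls, with chetomin as positive control.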

HRE-bla ME-180 cells [2] = assay: Cell proliferation assay (viability, MTT, 1% FBS); format: cell-based, human
Method in brief: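 ME-180 cells (2×10^4/well) in Opti-MEM with 1% FBS were pretreated 16 h under normoxia (21% O2), vehicle 0.5% DMSO final. Incubation then continued under normoxia or hypoxia (1% O2); viable cells quantified by MTT-type CellTiter 96 assay.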

[3] = target: T1, flag-tagged HIF1α (AA 786-826) / His6-tagged p300 (AA 323-423) complex (Homo sapiens, UniProt Q09472); assay: HIF1α p300 displacement assay (TR FRET, +CHAPS); format: binding; conditions: read-out: IC50 (nM) (HIF1α_p300 Displacement + CHAPS)
T1 construct: His6-tagged p300 (AA 323-423); made in house; host or cells: E. coli (pETDuet vector)
Method in brief: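 The co-expressed flag-HIF1α (786-826)/His6-p300 (323-423) complex, purified from E. coli with 0.1 mM ZnSO4, was used at 300 nM final with competitor peptides for 1 h at room temperature. Buffer was 150 mM NaCl, 20 mM HEPES pH 7.4, 7.5 mM CHAPS and 1 mM DTT. Anti-Flag-K (0.5 μM) and anti-His-D2 (4 nM) were then added for 2 h, and IC50s were fitted from the TR-FRET ratio.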

SMILES	18 h Avg % max inhibition at top conc (HIF Rptr-24 hrs normoxia) (μM) (HRE-bla ME-180 cells [1])	EC50 (HRE-bla ME-180 cells [1]) [µM]	Viability 1% FBS AVG (MTT V3-24 hr Normoxia) (μM) (HRE-bla ME-180 cells [2])	IC50 [3] [nM]
CCCC[C@H](NC(=O)[C@H](CCC(=O)O)NC(=O)[C@@H](NC(=O)[C@@H](NC(=O)[C@H](CO)NC(=O)[C@]1(C)CCCC=CCCC[C@](C)(NC(=O)[C@H](CCC(=O)O)NC(=O)[C@H](CC(=O)O)NC(=O)[C@@H](NC(=O)[C@H](Cc2ccccc2)NC(C)=O)[C@@H](C)CC)C(=O)N[C@@H](C(C)C)C(=O)N[C@@H](CC(C)C)C(=O)N[C@@H](CCCC)C(=O)N1)C(C)C)[C@@H](C)CC)C(=O)N[C@@H](C)C(=O)N[C@@H](CC(C)C)C(N)=O [SP-144] (Ac-FIDE[S5]VL[Nle][S5]SVIE[Nle]AL-NH2; staple 5-9)	++++ (≥50: ++++)	> 30	+++ (≤15 but <30: +++)	400 to 700
CCCC[C@H](NC(=O)[C@H](Cc1ccccc1)NC(=O)[C@@H](NC(=O)[C@H](CCC(=O)O)NC(=O)[C@H](CCC(=O)O)NC(=O)[C@H](CC(=O)O)NC(=O)[C@@H](NC(C)=O)[C@@H](C)CC)C(C)C)C(=O)N[C@@]1(C)CCCC=CCCC[C@@](C)(C(=O)N[C@@H](CCCC)C(=O)N[C@@H](C)C(=O)N[C@@H](CC(C)C)C(=O)N[C@@H](CC(C)C)C(N)=O)NC(=O)[C@H]([C@@H](C)CC)NC(=O)[C@H](C(C)C)NC(=O)[C@H](CC(C)C)NC1=O [SP-243] (Ac-IDEEVF[Nle][S5]LVI[S5][Nle]ALL-NH2; staple 8-12)	++++ (≥50: ++++)	15 to 30	++++ (≥30: ++++)	400 to 700
CCCC[C@H](NC(=O)[C@H](CC(C)C)NC(=O)[C@@H](NC(=O)[C@H](CCC(=O)O)NC(=O)[C@H](CCC(=O)O)NC(=O)[C@H](C)NC(=O)[C@@H](NC(=O)[C@H](Cc1ccccc1)NC(C)=O)[C@@H](C)CC)C(C)C)C(=O)N[C@@]1(C)CCCC=CCCC[C@@](C)(C(=O)N[C@@H](CCCC)C(=O)N[C@@H](C)C(=O)N[C@@H](CC(C)C)C(=O)N[C@@H](CC(=O)O)C(=O)N[C@@H](C)C(=O)N[C@H](C(N)=O)[C@@H](C)CC)NC(=O)[C@H]([C@@H](C)CC)NC(=O)[C@H](C(C)C)NC(=O)[C@H](CC(C)C)NC1=O [SP-221] (Ac-FIAEEVL[Nle][S5]LVI[S5][Nle]ALDAI-NH2; staple 9-13)	++++ (≥50: ++++)	15 to 30	++++ (≥30: ++++)	200 to 400
CC[C@H](C)[C@H](NC(=O)[C@H](Cc1ccccc1)NC(C)=O)C(=O)N[C@@H](CC(=O)O)C(=O)N[C@@H](CCC(=O)O)C(=O)N[C@@]1(C)CCCC=CCCC[C@@](C)(C(=O)N[C@@H](CC(C)C)C(=O)N[C@H](C(=O)N[C@H](C(=O)N[C@@H](CCC(=O)O)C(=O)N[C@@H](CCSC)C(=O)N[C@@H](C)C(=O)N[C@@H](C)C(=O)N[C@@H](C)C(N)=O)[C@@H](C)CC)C(C)C)NC(=O)[C@H](CCSC)NC(=O)[C@H](CC(C)C)NC(=O)[C@H](C(C)C)NC1=O [SP-117] (Ac-FIDE[S5]VLM[S5]LVIEMAAA-NH2; staple 5-9)	+++ (≤25 but <50: +++)	> 30	++++ (≥30: ++++)	> 700
CCCC[C@H](NC(=O)[C@H](CCC(=O)O)NC(=O)[C@@H](NC(=O)[C@@H](NC(=O)[C@H](CC(C)C)NC(=O)[C@]1(C)CCCC=CCCC[C@](C)(NC(=O)[C@H](CCC(=O)O)NC(=O)[C@H](CC(=O)O)NC(=O)[C@@H](NC(=O)[C@H](Cc2ccccc2)NC(C)=O)[C@@H](C)CC)C(=O)N[C@@H](CC(N)=O)C(=O)N[C@@H](CC(C)C)C(=O)N[C@@H](CCCC)C(=O)N1)C(C)C)[C@@H](C)CC)C(=O)N[C@@H](C)C(=O)N[C@@H](CC(C)C)C(N)=O [SP-141] (Ac-FIDE[S5]NL[Nle][S5]LVIE[Nle]AL-NH2; staple 5-9)	++++ (≥50: ++++)	15 to 30	++ (≤5 but <15: ++)	400 to 700
